# Results published in patent US8299048B2, “Hexahydrocyclopentyl[f]indazole sulfonamides and derivatives thereof as selective glucocorticoid receptor modulators” (Merck Sharp & Dohme Corp., priority 2008, dated 2012).
# Biological target: T1, glucocorticoid receptor (Homo sapiens, UniProt P04150)
# T1 construct: endogenous in cells
# T1 sequence (P04150 1-777): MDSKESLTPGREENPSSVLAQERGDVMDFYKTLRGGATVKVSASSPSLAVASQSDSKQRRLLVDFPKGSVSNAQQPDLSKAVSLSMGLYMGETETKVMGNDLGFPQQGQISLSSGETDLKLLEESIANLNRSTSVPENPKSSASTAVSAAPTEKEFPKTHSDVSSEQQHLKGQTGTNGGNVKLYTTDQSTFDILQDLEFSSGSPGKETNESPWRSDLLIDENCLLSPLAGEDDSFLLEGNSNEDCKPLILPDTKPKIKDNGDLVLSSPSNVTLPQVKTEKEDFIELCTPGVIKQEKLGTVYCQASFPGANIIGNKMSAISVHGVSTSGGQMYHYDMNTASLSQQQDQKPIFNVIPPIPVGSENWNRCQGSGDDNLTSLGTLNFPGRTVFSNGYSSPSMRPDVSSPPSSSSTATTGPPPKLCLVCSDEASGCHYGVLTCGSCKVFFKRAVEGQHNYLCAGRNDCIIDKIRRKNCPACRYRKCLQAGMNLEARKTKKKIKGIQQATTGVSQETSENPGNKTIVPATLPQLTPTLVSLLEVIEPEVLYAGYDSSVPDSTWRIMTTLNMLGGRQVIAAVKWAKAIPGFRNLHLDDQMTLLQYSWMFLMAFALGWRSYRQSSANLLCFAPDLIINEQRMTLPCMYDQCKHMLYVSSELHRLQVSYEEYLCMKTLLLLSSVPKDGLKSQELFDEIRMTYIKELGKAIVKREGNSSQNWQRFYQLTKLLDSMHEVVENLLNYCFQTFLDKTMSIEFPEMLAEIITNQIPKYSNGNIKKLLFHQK
# Assay: Ligand binding assay (GR BIND)
# Experimental: • Materials: • Binding Buffer: TEGM (10 mM Tris-HCl, 1 mM EDTA, 10% glycerol, 1 mM beta-mecaptoethanol, 10 mM Sodium Molybdate, pH 7.2) • 50% HAP Slurry: Calbiochem Hydroxylapatite, Fast Flow, in 10 mM Tris, pH 8.0 and 1 mM EDTA. • Wash Buffer: 40 mM Tris, pH7.5, 100 mM KCl, 1 mM EDTA and 1 mM EGTA.
# Phenol red-free Trypsin-EDTA is diluted in the same PBS1:10. The cell layers are rinsed with 1× Trypsin, extra Trypsin is poured out, and the cell layers are incubated at 37° C. for ˜2 min. The flask is tapped and checked for signs of cell detachment. Once the cells begin to slide off the flask, the complete media is added. The cells are counted at this point, then diluted to the appropriate concentration and split into flasks or dishes for further culturing (Usually 1:3 to 1:6 dilution).
# When the cells are 70 to 85% confluent, they are detached as described above, and collected by centrifuging at 1000 g for 10 minutes at 4° C. The cell pellet is washed twice with TEGM (10 mM Tris-HCl, 1 mM EDTA, 10% glycerol, 1 mM beta-mercaptoethanol, 10 mM Sodium Molybdate, pH 7.2). After the final wash, the cells are resuspended in TEGM at a concentration of 10^7 cells/mL. The cell suspension is snap frozen in liquid nitrogen or ethanol/dry ice bath and transferred to −80° C. freezer on dry ice. Before setting up the binding assay, the frozen samples are left on ice-water to just thaw (˜1 hr). Then the samples are centrifuged at 12,500 g to 20,000 g for 30 min at 4° C. The supernatant is used to set-up assay right away. If using 50 μL of supernatant, the test compound can be prepared in 50 μL of the TEGM buffer.
# 1×TEGM buffer is prepared, and the isotope-containing assay mixture is prepared in the following order: EtOH (2% final concentration in reaction), 3H-DEX (Amersham Biosciences) and 1×TEGM. [e.g. For 100 samples, 200 μL (100×2) of EtOH+4.25 μL of 1:10 ^3H—Dex stock+2300 μL (100×23) 1×TEGM]. The compound is serially diluted, e.g., if starting final conc. is 1 μM, and the compound is in 25 μL of solution, for duplicate samples, 75 μL of 4×1 μM solution is made and 3 μL of 100 μM is added to 72 μL of buffer, and 1:5 serial dilution.
# 25 μL of ^3H-DEX (6 nM) trace and 25 μL compound solution are first mixed together, followed by addition of 50 μL receptor solution. The reaction is gently mixed, spun briefly at about 200 rpm and incubated at 4° C. overnight. 100 μL of 50% HAP slurry is prepared and added to the incubated reaction which is then vortexed and incubated on ice for 5 to 10 minutes. The reaction mixture is vortexed twice more to resuspend HAP while incubating reaction. The samples in 96-well format are then washed in wash buffer using The FilterMate™ Universal Harvester plate washer (Packard). The washing process transfers HAP pellet containing ligand-bound expressed receptor to Unifilter-96 GF/B filter plate (Packard). The HAP pellet on the filter plate is incubated with 50 μL of MICROSCINT (Packard) scintillint for 30 minutes before being counted on the TopCount microscintillation counter (Packard). […] are calculated using DEX as a reference.
row,SMILES,Ki
1,"C[C@]12Cc3cnn(-c4ccc(F)cc4)c3C=C1CC[C@@H]2CN(CC1CC1)S(=O)(=O)c1cc(C(F)(F)F)ccc1Cl [Example 5, 2-chloro-N-(cyclopropylmethyl)-N-{[(4αR,5S)-1-(4-fluorophenyl)-4α-methyl-1,4,4α,5,6,7-hexahydrocyclopenta[f]indazol-5-yl]methyl}-5-(trifluoromethyl)benzenesulfonamide]",1 nM
2,"CC(=O)Nc1ccc(S(=O)(=O)N(CC2CC2)C[C@H]2CCC3=Cc4c(cnn4-c4ccc(F)cc4)C[C@@]32C)cc1 [Example 6, N-{4-[((cyclopropylmethyl){[(4αR,5S)-1-(4-fluorophenyl)-4α-methyl-1,4,4α,5,6,7-hexahydrocyclopenta[f]indazol-5-yl]methyl}amino)sulfonyl]phenyl}acetamide]",0.9 nM
3,Cc1nn(C)c(Cl)c1S(=O)(=O)N(CC1CC1)C[C@H]1CCC2=Cc3c(cnn3-c3ccc(F)cc3)C[C@@]21C [Example 7],0.4 nM
4,"CN1CCOc2cc(S(=O)(=O)N(CC3CC3)C[C@H]3CCC4=Cc5c(cnn5-c5ccc(F)cc5)C[C@@]43C)ccc21 [Example 8, N-(cyclopropylmethyl)-N-{[(4αR,5S)-1-(4-fluorophenyl)-4α-methyl-1,4,4α,5,6,7-hexahydrocyclopenta[f]indazol-5-yl]methyl}-4-methyl-3,4-dihydro-2H-1,4-benzoxazine-7-sulfonamide]",1.9 nM
5,"CCCCCc1ccc(S(=O)(=O)N(CC2CC2)C[C@H]2CCC3=Cc4c(cnn4-c4ccc(F)cc4)C[C@@]32C)cc1 [Example 9, N-(cyclopropylmethyl)-N-{[(4αR,5S)-1-(4-fluorophenyl)-4α-methyl-1,4,4α,5,6,7-hexahydrocyclopenta[f]indazol-5-yl]methyl}-4-pentylbenzenesulfonamide]",2.2 nM
6,"C[C@]12Cc3cnn(-c4ccc(F)cc4)c3C=C1CC[C@@H]2CN(CC1CC1)S(=O)(=O)c1ccc(-c2ccccc2)cc1 [Example 10, N-(cyclopropylmethyl)-N-{[(4αR,5S)-1-(4-fluorophenyl)-4α-methyl-1,4,4α,5,6,7-hexahydrocyclopenta[f]indazol-5-yl]methyl}biphenyl-4-sulfonamide]",0.7 nM
7,"Cc1noc(C)c1S(=O)(=O)N(CC1CC1)C[C@H]1CCC2=Cc3c(cnn3-c3ccc(F)cc3)C[C@@]21C [Example 11, N-(cyclopropylmethyl)-N-{[(4αR,5S)-1-(4-fluorophenyl)-4α-methyl-1,4,4α,5,6,7-hexahydrocyclopenta[f]indazol-5-yl]methyl}-3,5-dimethylisoxazole-4-sulfonamide]",0.7 nM
8,"CCCS(=O)(=O)N(CCOC)C[C@H]1CCC2=Cc3c(cnn3-c3ccc(F)cc3)C[C@@]21C [Example 95, N-{[(4αR,5S)-1-(4-fluorophenyl)-4α-methyl-1,4,4α,5,6,7-hexahydrocyclopenta[f]indazol-5-yl]methyl}-N-(2-methoxyethyl)propane-1-sulfonamide]",5.2 nM
9,"COCCN(C[C@H]1CCC2=Cc3c(cnn3-c3ccc(F)cc3)C[C@@]21C)S(C)(=O)=O [Example 96, N-{[(4αR,5S)-1-(4-fluorophenyl)-4α-methyl-1,4,4α,5,6,7-hexahydrocyclopenta[f]indazol-5-yl]methyl}-N-(2-methoxyethyl)methanesulfonamide]",1.1 nM
10,"COCCN(C[C@H]1CCC2=Cc3c(cnn3-c3ccc(F)cc3)C[C@@]21C)S(=O)(=O)CC(F)(F)F [Example 97, 2,2,2-trifluoro-N-{[(4αR,5S)-1-(4-fluorophenyl)-4α-methyl-1,4,4α,5,6,7-hexahydrocyclopenta[f]indazol-5-yl]methyl}-N-(2-methoxyethyl)ethanesulfonamide]",0.3 nM
11,"CCCCCCCCS(=O)(=O)N(CCc1ccccc1F)C[C@H]1CCC2=Cc3c(cnn3-c3ccc(F)cc3)C[C@@]21C [Example 104, N-[2-(2-fluorophenyl)ethyl]-N-{[(4αR,5S)-1-(4-fluorophenyl)-4α-methyl-1,4,4α,5,6,7-hexahydrocyclopenta[f]indazol-5-yl]methyl}octane-1-sulfonamide]",9.8 nM

# Continued, values first:
row,Ki,SMILES
1,1.5 nM,"Cn1cc(S(=O)(=O)N(CCc2ccccc2F)C[C@H]2CCC3=Cc4c(cnn4-c4ccc(F)cc4)C[C@@]32C)c(C(F)(F)F)n1 [Example 98, N-[2-(2-fluorophenyl)ethyl]-N-{[(4αR,5S)-1-(4-fluorophenyl)-4α-methyl-1,4,4α,5,6,7-hexahydrocyclopenta[f]indazol-5-yl]methyl}-1-methyl-3-(trifluoromethyl)-1H-pyrazole-4-sulfonamide]"
2,1.4 nM,"C[C@]12Cc3cnn(-c4ccc(F)cc4)c3C=C1CC[C@@H]2CN(CCc1ccccc1F)S(=O)(=O)c1ccccc1C(F)(F)F [Example 99, N-[2-(2-fluorophenyl)ethyl]-N-{[(4αR,5S)-1-(4-fluorophenyl)-4α-methyl-1,4,4α,5,6,7-hexahydrocyclopenta[f]indazol-5-yl]methyl}-2-(trifluoromethyl)benzenesulfonamide]"
3,2.1 nM,"C[C@]12Cc3cnn(-c4ccc(F)cc4)c3C=C1CC[C@@H]2CN(CCc1ccccc1F)S(=O)(=O)c1ccccc1Cl [Example 100, 2-chloro-N-[2-(2-fluorophenyl)ethyl]-N-{[(4αR,5S)-1-(4-fluorophenyl)-4α-methyl-1,4,4α,5,6,7-hexahydrocyclopenta[f]indazol-5-yl]methyl}benzenesulfonamide]"
4,2.6 nM,"CCCCS(=O)(=O)N(CCc1ccccc1F)C[C@H]1CCC2=Cc3c(cnn3-c3ccc(F)cc3)C[C@@]21C [Example 102, N-[2-(2-fluorophenyl)ethyl]-N-{[(4αR,5S)-1-(4-fluorophenyl)-4α-methyl-1,4,4α,5,6,7-hexahydrocyclopenta[f]indazol-5-yl]methyl}butane-1-sulfonamide]"
5,1.7 nM,"CC(C)CS(=O)(=O)N(CCc1ccccc1F)C[C@H]1CCC2=Cc3c(cnn3-c3ccc(F)cc3)C[C@@]21C [Example 103, N-[2-(2-fluorophenyl)ethyl]-N-{[(4αR,5S)-1-(4-fluorophenyl)-4α-methyl-1,4,4α,5,6,7-hexahydrocyclopenta[f]indazol-5-yl]methyl}-2-methylpropane-1-sulfonamide]"
6,1.7 nM,"C[C@]12Cc3cnn(-c4ccc(F)cc4)c3C=C1CC[C@@H]2CN(CCc1ccccc1F)S(=O)(=O)Cc1ccc(Cl)cc1Cl [Example 105, 1-(2,4-dichlorophenyl)-N-[2-(2-fluorophenyl)ethyl]-N-{[(4αR,5S)-1-(4-fluorophenyl)-4α-methyl-1,4,4α,5,6,7-hexahydrocyclopenta[f]indazol-5-yl]methyl}methanesulfonamide]"
7,1.7 nM,"C[C@]12Cc3cnn(-c4ccc(F)cc4)c3C=C1CC[C@@H]2CN(CCc1ccccc1F)S(=O)(=O)Cc1cccc(Cl)c1 [Example 106, 1-(3-chlorophenyl)-N-[2-(2-fluorophenyl)ethyl]-N-{[(4αR,5S)-1-(4-fluorophenyl)-4α-methyl-1,4,4α,5,6,7-hexahydrocyclopenta[f]indazol-5-yl]methyl}methanesulfonamide]"
